Source: patent US20250042848A1, “DEUTERATED FUNCTIONALIZED DERIVATIVES OF alpha-ALANINE, IN [sequence] FOR THE TREATMENT OF NEUROLOGICAL DISEASES” (UNIWERSYTET JAGIELLONSKI, priority 2021, published 2025)
Read-outs that look alike come from different tables or passages of the source.

Key:
[1] = mouse, in vivo, po, 40 mg/kg
Protocol: The animals were housed at a temperature of 22-24° C., humidity of 50% (+/−10%), in a room providing 15 air changes per hour, with 12:12 hours light-dark cycle. In addition, they had constant access to food and water. […] Blood was allowed to clot at room temperature for 20 min, then centrifuged for 5 min, 10,000×g (Eppendorf miniSpin centrifuge, Germany) to obtain serum. The obtained biological material was stored at −70° C. until analysis.
Concentrations of the tested compounds in murine serum and brain homogenates were determined by high-performance liquid chromatography-tandem mass spectrometry (HPLC-MS/MS). Analyzes were performed on a Sciex QTRAP 4500 triple quad mass spectrometer coupled to an Exion LC AC HPLC (Danaher Corporation, USA). The chromatographic separation was carried out on a Hypersil Gold™ C18 column (3×50 mm, 5 μm, Thermo Scientific, USA), using a mixture of acetonitrile and water with 0.1% formic acid as the mobile phase. Analyzes were performed at 40° C. and the gradient shown in Table 7 was used to obtain optimal retention time. Valsartan was used as an internal standard. Positive ionization mode (ESI+) was used for maximum sensitivity. […]
Non-compartmental analysis was used to estimate the pharmacokinetic parameters. Maximum concentration (Cmax) and time necessary to reach maximum blood concentration-tmax were evaluated directly from the concentration-time plot.

[2] = test system: maximal electroshock seizures in mice; experiment: Maximal electroshock seizure test (MES); assay type: in vivo
Protocol: (§1) Initial screening was performed on groups of 4 mice. The mean effective dose (ED50) in a given test and the neurotoxic dose in the rotarod test (TD50) were estimated on the basis of the results obtained on 3-4 groups of animals consisting of 6 animals.
In the maximal electroshock seizure test (MES), the seizures were induced by 500 V, 25 mA electrical stimulus of 0.2 s in duration. The electrical pulse was generated using an electric shock generator (Rodent shocker, Type 221, Hugo Sachs Elektronik, Germany) and delivered to the animal using electrodes placed on the auricles. The study was conducted 30 minutes/2 hours after intraperitoneal administration of the compounds at various doses. During the experiment, the number of animals that experienced a seizure episode in the form of hindlimb tonic extension was counted (Łuszczki, J.J. et al. Fundam. Clin. Pharmacol. 2008, 22, 69-74).
(§2) The ED50 (effective dose) and TD50 (toxic dose) values along with the corresponding 95% confidence limits were calculated based on the Litchfield and Wilcoxon method (Litchfield, J.T.; Wilcoxon, F. J. Pharmacol. Exp. Ther. 1949, 96, 99-113). To perform a statistical evaluation of the results in the scPTZ test, one-way ANOVA variance analysis followed by Dunnett's post hoc test were used. The values were considered statistically significant if p<0.05.

[3] = test system: psychomotor seizures induced by a 32 mA, 6 Hz stimulus in mice; experiment: Psychomotor seizure test 6 Hz (32 mA); assay type: in vivo
Protocol: as §1
(§3) In the psychomotor seizure test (6 Hz test), seizures were induced by a 32 mA and/or 44 mA electrical stimulus of a frequency of 6 pulses per second. An electrical pulse was generated using an electric shock generator (ECT Unit 57800; Ugo Basile, Gemonio, Italy) and delivered to the animal using corneal electrodes. Before starting the test, the eye surface was gently moistened with a solution of local anesthetic (1% lidocaine solution). The study was conducted 30 minutes/2 hours after intraperitoneal administration of the compounds at various doses. An electrical stimulus was delivered continuously for a period of 3 seconds, followed by observation of the animal for a period of 10 seconds. During the experiment, the number of animals with an episode of psychomotor convulsions was counted: motor inhibition, staggering, maintaining a sitting posture, forelimb clonus, twitching of the vibrissae and Straub-tail were observed (Leclercq, K.; Kaminski, R.M. Epilepsia 2015, 56, 310-318).
as §2

[4] = test system: psychomotor seizures induced by a 44 mA, 6 Hz stimulus in mice; experiment: Psychomotor seizure test 6 Hz (44 mA); assay type: in vivo; conditions: in mg/kg
Protocol: as §1, §3, §2

[5] = test system: motor coordination of mice; experiment: Rotarod test (motor coordination, acute neurotoxicity); assay type: in vivo; conditions: in mg/kg
Protocol: as §1
The effect of the tested compounds on motor coordination was assessed in the rotarod test (May Commat, RR 0711 RotaRod, Turkey). The day before the actual experiment, the mice were trained on a rod rotating at 10 revolutions per minute (rpm) for 3 minutes. The experiment was performed 30 minutes and 2 hours after administration of the compounds. The motor coordination of the animals was tested at the speed of the rotating rod: 10 rpm for 60 seconds. The measure of neurotoxicity was the inability to stay on the rod for a given time (Łuszczki, J.J. et al. Eur. Neuropsychopharmacol. 2005, 6, 609-616).
as §2

[6] = test system: human liver microsomes (HLMs); experiment: In vitro metabolic stability, human liver microsomes; assay type: in vitro ADME; conditions: 120-minute incubation with HLMs
Protocol: Metabolic stability assessment was performed using mouse (MLMs) and human (HLMs) liver microsomes purchased from Sigma-Aldrich (St. Louis, MO, USA). The detailed methodology is described in the literature (Kamiński et al. J. Med. Chem. 2015, 58, 5274-5286). The reaction mixture was prepared by mixing […] of the tested compound with mouse or human microsomes (1 mg/mL) in 10 mM TRIS-HCl buffer. The reaction mixture was pre-incubated for 5 min at 37° C. After the initial incubation, 50 μL of the NADPH Regeneration System (Promega, Madison, WI, USA) was added to initiate the reaction. The reaction mixture was then incubated for 120 min at 37° C. 200 μL of cold extra pure methanol was added to complete the reaction. The mixture was then centrifuged at 14,000 g for 15 min and the supernatants were analyzed using a Waters ACQUITY™ TQD LC/MS system with a TQ detector (Waters, Milford, USA). Each experiment was performed in triplicate.

[7] = test system: motor coordination of mice; conditions: in vivo; cited from earlier work
[8] = test system: spontaneous locomotor activity of mice; conditions: mouse, in vivo; cited from earlier work
[9] = test system: human liver microsomes (HLMs); conditions: cited from earlier work
CYP3A4 = CYP3A4 (Homo sapiens, UniProt P08684); conditions: cited from earlier work
Chain of CYP3A4 (P08684 whole entry): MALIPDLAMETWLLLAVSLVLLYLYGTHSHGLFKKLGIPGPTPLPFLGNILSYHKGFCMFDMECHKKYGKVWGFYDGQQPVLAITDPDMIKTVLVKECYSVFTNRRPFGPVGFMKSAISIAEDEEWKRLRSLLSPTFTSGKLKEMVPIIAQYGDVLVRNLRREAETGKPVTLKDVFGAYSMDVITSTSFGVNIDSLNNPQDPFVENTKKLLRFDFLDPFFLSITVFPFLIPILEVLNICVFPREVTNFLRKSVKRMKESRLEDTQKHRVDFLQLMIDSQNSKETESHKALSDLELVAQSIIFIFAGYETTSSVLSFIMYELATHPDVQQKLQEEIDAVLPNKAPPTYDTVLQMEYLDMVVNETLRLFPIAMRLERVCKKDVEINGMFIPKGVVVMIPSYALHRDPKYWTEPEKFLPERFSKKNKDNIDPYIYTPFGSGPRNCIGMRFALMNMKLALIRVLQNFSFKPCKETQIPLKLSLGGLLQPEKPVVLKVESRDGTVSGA

CYP2D9 = conditions: cited from earlier work
[10] = test system: psychomotor seizures induced by a 32 mA, 6 Hz stimulus in mice; conditions: 0.5 h, i.p.; own data disclosed in Abram et al. Bioorg. Chem. 2021; in mg/kg; cited from earlier work
[11] = test system: pentylenetetrazole-induced clonic seizures in mice; conditions: 0.5 h, i.p.; own data disclosed in Abram et al. Bioorg. Chem. 2021; in mg/kg; cited from earlier work
[12] = 0.5 h after i.p. administration
[13] = 2.0 h after i.p. administration

Row | Compound | tmax [1] [min] | ED50 MES [2, 12] [mg/kg] | ED50 MES [2, 13] [mg/kg] | ED50 6 Hz (32 mA) [3, 12] [mg/kg] | ED50 6 Hz (32 mA) [3, 13] [mg/kg] | ED50 6 Hz (44 mA) [4, 12] | ED50 6 Hz (44 mA) [4, 13] | TD50 Rotarod [5, 12] | TD50 Rotarod [5, 13] | metabolic stability [6] | effect on mouse motor coordination in the rotarod test [7] | sedative effect in spontaneous locomotor activity test on mice [8] | metabolic stability on human microsomes [9] | interaction with CYP3A4 isoform of cytochrome P-450 (CYP3A4) | interaction with CYP2D9 isoform of cytochrome P-450 (CYP2D9) | ED50 6 Hz (32 mA) [10] | ED50 scPTZ [11]
1 | CC(C(=O)NCc1ccccc1F)N1C(=O)CCC1=O (centres unmarked) [Compound 2, reference compound] | 30 | 23.6 | 73.3 | 16.7 | 38.1 | 78.3 | 86.8 | >100 | >300 | high metabolic stability | minimal effect | no sedative effect | very high metabolic stability | no interaction | no interaction |  | 
2 | CCCC(CCC)C(=O)O [VPA, valproic acid] |  |  |  |  |  |  |  |  |  |  |  |  |  |  |  | 130.6 | 239.4
